Laboratory results reported in patent US20140342379A1, “Means and Methods for Assessing Gonadal Toxicity” (BASF SE, priority 2011, published 2014).
Marks after values point to notes of the source that are not given here.

System: female rats
Assay: 28-day repeated dose study, plasma metabolite profiling (GC-MS, LC-MS), female rats

## CC#C[C@]1(O)CC[C@H]2[C@@H]3CCC4=CC(=O)CCC4=C3[C@@H](c3ccc(N(C)C)cc3)C[C@@]21C [Mifepristone, (11b,17b)-11-[4-(Dimethylamino)phenyl]-17-hydroxy-17-(1-propynyl)estra-4,9-dien-3-one]
Day 7
  3-Methoxytyrosine, plasma, treatment ratio versus control: 1.09
  Arachidonic acid (C20:cis[5,8,11,14]4), plasma, treatment ratio versus control: 0.64*
  Campesterol, plasma, treatment ratio versus control: 0.61*
  Cholesterol, plasma, treatment ratio versus control: 0.65*
  Choline plasmalogen No 03, plasma, treatment ratio versus control: 0.89*
  Citrate, plasma, treatment ratio versus control: 0.83*
  Docosahexaenoic acid (C22:cis[4,7,10,13,16,19]6), plasma, treatment ratio versus control: 0.73*
  Docosapentaenoic acid (C22:cis[7,10,13,16,19]5), plasma, treatment ratio versus control: 0.67
  Dodecanol, plasma, treatment ratio versus control: 0.59*
  Elaidic acid (C18:trans[9]1), plasma, treatment ratio versus control: 0.74*
  Glycerol phosphate, lipid fraction, plasma, treatment ratio versus control: 0.52*
  Lysophosphatidylcholine (C20:4), plasma, treatment ratio versus control: 0.93
  Metanephrine, plasma, treatment ratio versus control: 0.9
  Phosphatidylcholine (C18:0,C18:1), plasma, treatment ratio versus control: 0.85
  Phosphatidylcholine (C18:0,C22:6), plasma, treatment ratio versus control: 0.87*
  Phosphatidylcholine No 04, plasma, treatment ratio versus control: 0.67*
  Progesterone, plasma, treatment ratio versus control: 0.67
  alpha-Tocopherol, plasma, treatment ratio versus control: 0.75
  gamma-Linolenic acid (C18:cis[6,9,12]3), plasma, treatment ratio versus control: 0.76
  myo-Inositol, lipid fraction, plasma, treatment ratio versus control: 0.63*
  threo-Sphingosine, plasma, treatment ratio versus control: 0.56*
Day 14
  3-Methoxytyrosine, plasma, treatment ratio versus control: 1
  Arachidonic acid (C20:cis[5,8,11,14]4), plasma, treatment ratio versus control: 0.71*
  Campesterol, plasma, treatment ratio versus control: 0.66*
  Cholesterol, plasma, treatment ratio versus control: 0.72*
  Choline plasmalogen No 03, plasma, treatment ratio versus control: 0.77*
  Citrate, plasma, treatment ratio versus control: 0.94
  Docosahexaenoic acid (C22:cis[4,7,10,13,16,19]6), plasma, treatment ratio versus control: 0.78*
  Docosapentaenoic acid (C22:cis[7,10,13,16,19]5), plasma, treatment ratio versus control: 0.97
  Dodecanol, plasma, treatment ratio versus control: 0.84*
  Elaidic acid (C18:trans[9]1), plasma, treatment ratio versus control: 0.71*
  Glycerol phosphate, lipid fraction, plasma, treatment ratio versus control: 0.76
  Lysophosphatidylcholine (C20:4), plasma, treatment ratio versus control: 0.93
  Metanephrine, plasma, treatment ratio versus control: 0.61
  Phosphatidylcholine (C18:0,C18:1), plasma, treatment ratio versus control: 0.8*
  Phosphatidylcholine (C18:0,C22:6), plasma, treatment ratio versus control: 0.9
  Phosphatidylcholine No 04, plasma, treatment ratio versus control: 0.8*
  Progesterone, plasma, treatment ratio versus control: 0.45*
  alpha-Tocopherol, plasma, treatment ratio versus control: 0.76*
  gamma-Linolenic acid (C18:cis[6,9,12]3), plasma, treatment ratio versus control: 0.69
  myo-Inositol, lipid fraction, plasma, treatment ratio versus control: 0.77*
  threo-Sphingosine, plasma, treatment ratio versus control: 0.79
Day 28
  3-Methoxytyrosine, plasma, treatment ratio versus control: 1.09
  Arachidonic acid (C20:cis[5,8,11,14]4), plasma, treatment ratio versus control: 0.78
  Campesterol, plasma, treatment ratio versus control: 0.83
  Cholesterol, plasma, treatment ratio versus control: 0.76
  Choline plasmalogen No 03, plasma, treatment ratio versus control: 0.74*
  Citrate, plasma, treatment ratio versus control: 0.89*
  Docosahexaenoic acid (C22:cis[4,7,10,13,16,19]6), plasma, treatment ratio versus control: 0.75*
  Docosapentaenoic acid (C22:cis[7,10,13,16,19]5), plasma, treatment ratio versus control: 1
  Dodecanol, plasma, treatment ratio versus control: 0.86
  Elaidic acid (C18:trans[9]1), plasma, treatment ratio versus control: 0.79
  Glycerol phosphate, lipid fraction, plasma, treatment ratio versus control: 0.79
  Lysophosphatidylcholine (C20:4), plasma, treatment ratio versus control: 0.87*
  Metanephrine, plasma, treatment ratio versus control: 0.81
  Phosphatidylcholine (C18:0,C18:1), plasma, treatment ratio versus control: 0.7*
  Phosphatidylcholine (C18:0,C22:6), plasma, treatment ratio versus control: 0.99
  Phosphatidylcholine No 04, plasma, treatment ratio versus control: 0.69*
  Progesterone, plasma, treatment ratio versus control: 0.38*
  alpha-Tocopherol, plasma, treatment ratio versus control: 0.61*
  gamma-Linolenic acid (C18:cis[6,9,12]3), plasma, treatment ratio versus control: 0.73*
  myo-Inositol, lipid fraction, plasma, treatment ratio versus control: 0.86
  threo-Sphingosine, plasma, treatment ratio versus control: 0.79
